ChEMBL document CHEMBL2069226, “N-Aryl pyrrolidinonyl oxadiazoles as potent mGluR5 positive allosteric modulators” (Bioorg Med Chem Lett, 2012)
Converted amounts (≈) assume the structure as drawn.

Experiments:
[1] = biological target: T1, Metabotropic glutamate receptor 5 (Homo sapiens, UniProt P41594); experiment: Positive allosteric modulation of human mGluR5 expressed in HEK293A cells assessed as stimulation of glutamate-induced calcium flux by FLIPR method; format: functional, cell-based, HEK293-A; conditions: for Emax: HEK293-A
[2] = Solubility of the compound in […] by UPLC method; format: physicochemical
[3] = biological target: T1, Metabotropic glutamate receptor 5; experiment: Negative allosteric modulation of human mGluR5 expressed in HEK293A cells assessed as inhibition of glutamate-induced calcium flux by FLIPR method; format: functional, cell-based, HEK293-A; conditions: for inhibition: HEK293-A, concentration not given here
[4] = biological target: T1, Metabotropic glutamate receptor 5; experiment: Displacement of [3H]NAM from mGluR5
Target sequence in this assay (P41594 whole entry): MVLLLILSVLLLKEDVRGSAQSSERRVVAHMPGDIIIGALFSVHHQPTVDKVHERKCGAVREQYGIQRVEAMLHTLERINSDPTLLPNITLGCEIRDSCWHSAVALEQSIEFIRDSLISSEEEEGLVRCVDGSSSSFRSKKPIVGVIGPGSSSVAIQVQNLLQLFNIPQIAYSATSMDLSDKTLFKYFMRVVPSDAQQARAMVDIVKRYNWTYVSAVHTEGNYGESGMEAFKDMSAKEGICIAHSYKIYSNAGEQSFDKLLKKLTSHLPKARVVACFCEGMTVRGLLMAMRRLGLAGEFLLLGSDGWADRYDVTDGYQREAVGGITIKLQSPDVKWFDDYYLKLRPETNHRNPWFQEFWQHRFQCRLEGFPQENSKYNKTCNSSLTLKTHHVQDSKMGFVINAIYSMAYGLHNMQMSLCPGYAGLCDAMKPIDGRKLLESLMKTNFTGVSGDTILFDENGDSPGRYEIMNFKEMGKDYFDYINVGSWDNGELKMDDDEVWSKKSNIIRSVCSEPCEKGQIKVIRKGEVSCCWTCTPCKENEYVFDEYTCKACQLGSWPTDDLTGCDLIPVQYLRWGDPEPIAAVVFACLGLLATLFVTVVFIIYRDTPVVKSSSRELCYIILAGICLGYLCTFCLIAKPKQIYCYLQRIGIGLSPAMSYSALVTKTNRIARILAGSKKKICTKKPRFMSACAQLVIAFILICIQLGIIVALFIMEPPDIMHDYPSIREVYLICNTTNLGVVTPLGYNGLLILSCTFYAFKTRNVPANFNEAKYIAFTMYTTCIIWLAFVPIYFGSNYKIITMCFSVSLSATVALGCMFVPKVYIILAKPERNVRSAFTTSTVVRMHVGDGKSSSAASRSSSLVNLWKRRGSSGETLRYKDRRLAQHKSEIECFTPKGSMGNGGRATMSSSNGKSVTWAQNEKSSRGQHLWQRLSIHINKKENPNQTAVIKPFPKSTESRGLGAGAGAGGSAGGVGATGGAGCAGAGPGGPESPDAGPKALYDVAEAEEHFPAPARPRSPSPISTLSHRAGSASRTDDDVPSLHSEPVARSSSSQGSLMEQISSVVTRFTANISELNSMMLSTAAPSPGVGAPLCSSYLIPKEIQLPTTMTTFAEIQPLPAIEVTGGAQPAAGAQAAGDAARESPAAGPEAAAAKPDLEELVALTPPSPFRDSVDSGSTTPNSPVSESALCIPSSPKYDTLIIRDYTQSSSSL

[5] = Plasma concentration in rat at 10 mg/kg, ip administered as single dose after 1 hr; format: ADME, organism-based; parameters: dose 10 mg/kg, route intraperitoneal
[6] = Drug uptake in rat brain at 10 mg/kg, ip administered as single dose after 1 hr; format: ADME, organism-based; parameters: dose 10 mg/kg, route intraperitoneal; conditions: read-out: Drug uptake
[7] = system: Liver; experiment: Intrinsic clearance in human liver; format: ADME, tissue-based
[8] = system: Liver; experiment: Intrinsic clearance in rat liver; format: ADME, tissue-based
[9] = biological target: Cytochrome P450 2C19 (Homo sapiens, UniProt P33261); experiment: Inhibition of CYP2C19; format: ADME
Chain of Cytochrome P450 2C19 (P33261 whole entry): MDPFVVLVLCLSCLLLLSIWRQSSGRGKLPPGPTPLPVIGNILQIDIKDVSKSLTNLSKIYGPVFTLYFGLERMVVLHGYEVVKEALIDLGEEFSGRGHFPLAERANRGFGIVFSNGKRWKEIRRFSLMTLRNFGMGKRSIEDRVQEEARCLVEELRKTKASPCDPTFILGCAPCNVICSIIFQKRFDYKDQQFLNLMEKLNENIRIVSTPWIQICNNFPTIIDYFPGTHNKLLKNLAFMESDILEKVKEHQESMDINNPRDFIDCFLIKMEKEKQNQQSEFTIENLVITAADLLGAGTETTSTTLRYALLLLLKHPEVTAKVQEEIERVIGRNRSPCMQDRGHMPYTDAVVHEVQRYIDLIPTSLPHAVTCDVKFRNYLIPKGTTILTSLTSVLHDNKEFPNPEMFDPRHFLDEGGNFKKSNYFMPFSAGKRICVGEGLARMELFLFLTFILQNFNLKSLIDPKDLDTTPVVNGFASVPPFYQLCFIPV

[10] = biological target: Cytochrome P450 2C9 (Homo sapiens, UniProt P11712); experiment: Inhibition of CYP2C9; format: ADME
Chain of Cytochrome P450 2C9 (P11712 whole entry): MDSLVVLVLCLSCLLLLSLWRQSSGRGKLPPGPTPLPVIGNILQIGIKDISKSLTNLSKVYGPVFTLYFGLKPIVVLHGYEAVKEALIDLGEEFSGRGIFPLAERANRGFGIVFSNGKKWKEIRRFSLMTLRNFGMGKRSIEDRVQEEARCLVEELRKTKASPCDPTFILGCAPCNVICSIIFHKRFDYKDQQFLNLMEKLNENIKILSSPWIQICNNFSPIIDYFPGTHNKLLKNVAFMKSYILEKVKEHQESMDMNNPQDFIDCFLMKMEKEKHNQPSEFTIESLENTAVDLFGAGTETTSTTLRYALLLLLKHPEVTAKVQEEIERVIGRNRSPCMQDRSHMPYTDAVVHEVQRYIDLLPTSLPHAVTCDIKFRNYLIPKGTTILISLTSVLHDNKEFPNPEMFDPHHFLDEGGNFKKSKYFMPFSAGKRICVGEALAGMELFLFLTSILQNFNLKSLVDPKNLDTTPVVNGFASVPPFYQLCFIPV

[11] = biological target: T2, Cytochrome P450 1A2 (Homo sapiens, UniProt P05177); experiment: Inhibition of CYP1A2; format: ADME
T2 sequence (P05177 whole entry): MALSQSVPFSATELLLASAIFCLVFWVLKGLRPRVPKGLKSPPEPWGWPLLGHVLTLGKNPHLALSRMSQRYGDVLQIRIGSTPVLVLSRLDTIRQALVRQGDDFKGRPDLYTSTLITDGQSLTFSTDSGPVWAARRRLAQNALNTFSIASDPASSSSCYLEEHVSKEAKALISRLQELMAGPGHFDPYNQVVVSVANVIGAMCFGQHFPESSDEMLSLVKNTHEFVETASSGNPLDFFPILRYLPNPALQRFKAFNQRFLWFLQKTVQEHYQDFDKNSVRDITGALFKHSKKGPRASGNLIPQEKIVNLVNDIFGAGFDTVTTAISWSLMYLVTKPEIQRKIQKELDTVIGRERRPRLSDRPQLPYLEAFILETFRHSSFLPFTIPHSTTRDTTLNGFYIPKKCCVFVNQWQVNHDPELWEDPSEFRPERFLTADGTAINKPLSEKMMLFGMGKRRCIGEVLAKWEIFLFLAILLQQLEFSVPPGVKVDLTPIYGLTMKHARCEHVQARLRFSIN

[12] = biological target: Cytochrome P450 3A4 (Homo sapiens, UniProt P08684); experiment: Inhibition of CYP3A4; format: ADME
Chain of Cytochrome P450 3A4 (P08684 whole entry): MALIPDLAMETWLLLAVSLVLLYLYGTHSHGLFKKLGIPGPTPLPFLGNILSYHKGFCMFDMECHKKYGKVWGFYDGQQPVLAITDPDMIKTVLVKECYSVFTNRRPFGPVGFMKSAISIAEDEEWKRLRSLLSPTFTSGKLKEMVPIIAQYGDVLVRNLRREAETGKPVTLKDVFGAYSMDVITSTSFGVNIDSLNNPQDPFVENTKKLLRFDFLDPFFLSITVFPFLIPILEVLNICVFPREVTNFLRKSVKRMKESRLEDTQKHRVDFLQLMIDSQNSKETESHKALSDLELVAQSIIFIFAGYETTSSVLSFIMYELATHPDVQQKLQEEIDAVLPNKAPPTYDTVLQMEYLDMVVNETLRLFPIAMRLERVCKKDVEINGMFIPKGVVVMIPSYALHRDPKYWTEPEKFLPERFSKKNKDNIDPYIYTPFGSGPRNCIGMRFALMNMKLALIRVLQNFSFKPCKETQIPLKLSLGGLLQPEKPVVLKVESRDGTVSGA

[13] = biological target: Cytochrome P450 2D6 (Homo sapiens, UniProt P10635); experiment: Inhibition of CYP2D6; format: ADME
Chain of Cytochrome P450 2D6 (P10635 whole entry): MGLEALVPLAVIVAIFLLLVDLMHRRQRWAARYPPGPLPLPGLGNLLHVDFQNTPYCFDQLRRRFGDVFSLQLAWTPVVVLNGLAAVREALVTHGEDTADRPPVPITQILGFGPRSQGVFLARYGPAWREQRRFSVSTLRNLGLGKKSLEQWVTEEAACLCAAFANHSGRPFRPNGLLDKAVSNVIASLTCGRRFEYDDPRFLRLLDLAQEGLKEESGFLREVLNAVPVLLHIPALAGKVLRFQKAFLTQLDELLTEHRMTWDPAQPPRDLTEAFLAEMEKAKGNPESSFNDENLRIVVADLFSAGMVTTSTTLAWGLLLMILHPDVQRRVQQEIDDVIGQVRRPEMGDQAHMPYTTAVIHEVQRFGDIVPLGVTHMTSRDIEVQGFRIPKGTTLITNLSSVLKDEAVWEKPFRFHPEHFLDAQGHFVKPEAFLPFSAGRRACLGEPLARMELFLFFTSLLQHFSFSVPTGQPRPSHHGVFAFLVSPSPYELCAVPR

Compound | EC50 [1] [nM] | Emax [1] [%] | IC50 [3] [nM] | inhibition [3] [%] | other results
O=C1CC(c2nc(-c3cccc(F)c3)no2)CN1c1ccc(F)cc1 (stereo unspecified) | 88 | 140 | – | – | –
O=C1CC(c2nc(Cc3ccccc3)no2)CN1c1ccc(F)cc1 (stereo unspecified) | – | – | – | – | solubility [2]: 23 µM (≈ 7.76 µg/mL)
O=C1CCc2ccc(Cl)cc2N1CCc1nc(-c2cccc(Cl)c2)no1 | > 10000 | -29 | 550 | 82 | –
C[C@H](c1ccccc1)N1C[C@H](c2nc(-c3cccc(Cl)c3)no2)CC1=O | – | – | 1600 | – | solubility [2]: 23 µM (≈ 8.46 µg/mL)
O=C1CC(c2nc(-c3cccc(Cl)c3)no2)CN1c1ccc(Cl)cc1 (stereo unspecified) | 140 | 67 | > 10000 | 44 | –
Cc1ccc(N2CC(c3nc(-c4cccc(C)c4)no3)CC2=O)cc1 (stereo unspecified) | 1300 | 150 | – | – | –
O=C1CC(c2nc(-c3ccccc3)no2)CN1c1ccccc1 (stereo unspecified) | 350 | 42 | – | – | –
O=C1CC(c2nc(-c3ccccn3)no2)CN1c1ccc(F)cc1 (stereo unspecified) | > 10000 | -41 | – | – | solubility [2]: 26 µM (≈ 8.43 µg/mL)
O=C1CC(c2nc(-c3ccccc3)no2)CN1c1ccc(F)cc1 (stereo unspecified) | 58 | 130 | – | – | –
O=C1CC(c2nc(-c3cccc(Cl)c3)no2)CN1c1ccccc1F (stereo unspecified) | > 10000 | -29 | 1100 | 89 | –
Cc1cccc(N2CC(c3nc(-c4cccc(Cl)c4)no3)CC2=O)c1 (stereo unspecified) | > 10000 | 28 | 2300 | 85 | –
COc1cccc(N2CC(c3nc(-c4cccc(Cl)c4)no3)CC2=O)c1 (stereo unspecified) | > 10000 | -37 | 690 | 92 | –
O=C1CC(c2nc(-c3cccc(C(F)(F)F)c3)no2)CN1c1ccc(F)cc1 (stereo unspecified) | > 10000 | 25 | – | – | –
O=C1CC(c2nc(-c3ccc(F)cc3)no2)CN1c1ccc(Cl)cc1 (stereo unspecified) | 1700 | 33 | – | – | –
O=C1CC(c2nc(-c3cccc(Cl)c3)no2)CN1c1ccc(F)cc1 (racemic) [listing 1 of 2 here] | 10.7 | – | > 10000 | – | Ki [4]: 410 nM; concentration at 1 h [5]: 22 ng/mL; solubility [2]: 15 µM (≈ 5.37 µg/mL); concentration at 1 h [6]: 86 ng/g; CLH [7]: 0.6 L/min; CLH [8]: 22 mL/min
O=C1CC(c2nc(-c3cccc(Cl)c3)no2)CN1c1ccc(F)cc1 (single isomer, unassigned; (-)) | 8.8 | – | – | – | Ki [4]: 150 nM
O=C1CC(c2nc(-c3ccc(F)cc3)no2)CN1c1ccc(Cl)c(Cl)c1 (stereo unspecified) | 2300 | 44 | – | – | –
O=C1CC(c2nc(-c3cccc(Cl)c3)no2)CN1c1ccc(F)cc1 (racemic) [listing 2 of 2 here] | – | 55 | – | – | –
O=C1CC(c2nc(-c3cccc(Cl)c3)no2)CN1c1ccccc1Cl (stereo unspecified) | > 10000 | -31 | 680 | 93 | –
Cc1cccc(-c2noc(C3CC(=O)N(c4ccc(Cl)c(Cl)c4)C3)n2)c1 (stereo unspecified) | 390 | 65 | – | – | –
O=c1oc2ccccc2n1Cc1nc(-c2cccc(Cl)c2)no1 | > 10000 | 4 | 2100 | 50 | –
O=C1CC(c2nc(-c3ccc(Cl)cc3)no2)CN1c1ccc(Cl)c(Cl)c1 (stereo unspecified) | 1100 | 44 | – | – | –
O=C1COc2ccccc2N1CCc1nc(-c2cccc(Cl)c2)no1 | > 10000 | -29 | 800 | 88 | –
Cc1ccc(N2CC(c3nc(-c4ccccc4)no3)CC2=O)cc1 (stereo unspecified) | 384 | 41 | – | – | –

Compound | EC50 [1] [nM] | Emax [1] [%] | IC50 [3] [nM] | inhibition [3] [%] | other results
O=C1CC(c2nc(-c3cccc(Cl)c3)no2)CN1c1ccc(Cl)c(Cl)c1 (stereo unspecified) | 460 | 51 | > 10000 | 8.3 | –
Cc1cccc(-c2noc(C3CC(=O)N(c4ccc(Cl)cc4)C3)n2)c1 (stereo unspecified) | 170 | 1.6 | – | – | –
O=C1CC(c2nc(-c3cccc(F)c3)no2)CN1c1ccc(Cl)cc1 (stereo unspecified) | 630 | 120 | – | – | –
O=C1CC(c2nc(-c3cccc(Cl)c3)no2)CN1Cc1ccc(F)cc1 (stereo unspecified) | – | – | 3600 | – | solubility [2]: 23 µM (≈ 8.55 µg/mL)
COc1ccc(N2CC(c3nc(-c4cccc(Cl)c4)no3)CC2=O)cc1 (stereo unspecified) | > 10000 | 47 | 3520 | 2 | –
O=C1COc2ccccc2N1Cc1nc(-c2cccc(Cl)c2)no1 | > 10000 | -28 | 770 | 84 | –
Cc1ccc(N2CC(c3nc(-c4cccc(C(F)(F)F)c4)no3)CC2=O)cc1 (stereo unspecified) | 3400 | 32 | – | – | –
Cc1ccc(N2CC(c3nc(-c4cccc(F)c4)no3)CC2=O)cc1 (stereo unspecified) | 1200 | 130 | – | – | –
Cc1cccc(-c2noc(C3CC(=O)N(c4ccc(C)c(Cl)c4)C3)n2)c1 (stereo unspecified) | 240 | 90 | – | – | –
Cc1ccc(N2CC(c3nc(-c4cccc(Cl)c4)no3)CC2=O)cc1C (stereo unspecified) | 310 | 57 | > 10000 | – | –
Cc1cccc(-c2noc(C3CC(=O)N(c4ccc(F)cc4)C3)n2)c1 (racemic) [listing 1 of 2 here] | – | 78 | – | – | –
COc1cccc(-c2noc(C3CC(=O)N(c4ccc(Cl)cc4)C3)n2)c1 (stereo unspecified) | 4800 | 50 | – | – | –
Cc1cccc(-c2noc(C3CC(=O)N(c4ccc(Cl)cc4)C3)n2)n1 (stereo unspecified) | > 10000 | 1 | – | – | solubility [2]: 26 µM (≈ 9.22 µg/mL)
CC(C)N1CC(c2nc(-c3cccc(Cl)c3)no2)CC1=O (stereo unspecified) | – | – | – | – | solubility [2]: 23 µM (≈ 7.03 µg/mL)
Cc1ccc(N2CC(c3nc(-c4cccc(Cl)c4)no3)CC2=O)cc1 (stereo unspecified) | 630 | 69 | > 10000 | -2.5 | –
CC(C)CN1CC(c2nc(-c3cccc(Cl)c3)no2)CC1=O (stereo unspecified) | – | – | 920 | – | solubility [2]: 23 µM (≈ 7.36 µg/mL)
O=c1sc2ccccc2n1Cc1nc(-c2cccc(Cl)c2)no1 | > 10000 | 7 | 1100 | 71 | –
Cc1ccccc1N1CC(c2nc(-c3cccc(Cl)c3)no2)CC1=O (stereo unspecified) | > 10000 | -29 | 370 | 91 | –
COc1ccccc1N1CC(c2nc(-c3cccc(Cl)c3)no2)CC1=O (stereo unspecified) | > 10000 | -31 | 630 | 93 | –
Cc1cccc(-c2noc(C3CC(=O)N(c4ccc(F)cc4)C3)n2)c1 (racemic) [listing 2 of 2 here] | 12.5 | – | – | – | IC50 [9]: > 11000 nM; solubility [2]: 2.7 µM (≈ 0.911 µg/mL); IC50 [10]: > 11000 nM; CLH [7]: 2.7 L/min; IC50 [11]: > 11000 nM; IC50 [12]: > 11000 nM; IC50 [13]: > 11000 nM; CLH [8]: 27 mL/min
O=C1CC(c2nc(-c3cccc(F)c3)no2)CN1c1ccc(Cl)c(Cl)c1 (stereo unspecified) | 3200 | 140 | – | – | –
COc1cccc(-c2noc(C3CC(=O)N(c4ccc(F)cc4)C3)n2)c1 (stereo unspecified) | 1100 | 48 | – | – | –
O=C1CC(c2nc(-c3cccc(Cl)c3)no2)CN1c1cccc(Cl)c1 (stereo unspecified) | > 10000 | -18 | 1100 | 68 | –
Cc1cccc(-c2noc(C3CC(=O)N(c4ccc(F)cc4)C3)n2)n1 (stereo unspecified) | > 10000 | -15 | – | – | solubility [2]: 26 µM (≈ 8.8 µg/mL)
